Laboratory results from PubChem BioAssay AID652229 (The Scripps Research Institute Molecular Screening Center, 2013).
Calls of active or inactive are those of the source.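 Rule for the calls: active = phosphatase PP5 activity blocked by at least 30% at 50 µM; inactive = the rest.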

Target: Serine/threonine-protein phosphatase 5 (Homo sapiens) (UniProt P53041)
Test: PP5 phosphatase inhibition selectivity check, late-stage follow-up, selectivity assay for PP1 inhibitor project, biochemical, radiolabel, 33P-phosphohistone substrate, powder samples (AID 652229)
Settings: purified PP5c, 33P-phosphohistone dephosphorylation, scintillation; at 50 µM; stronger effect = higher value

Sequence of Serine/threonine-protein phosphatase 5 (Homo sapiens) (P53041 whole entry, looked up): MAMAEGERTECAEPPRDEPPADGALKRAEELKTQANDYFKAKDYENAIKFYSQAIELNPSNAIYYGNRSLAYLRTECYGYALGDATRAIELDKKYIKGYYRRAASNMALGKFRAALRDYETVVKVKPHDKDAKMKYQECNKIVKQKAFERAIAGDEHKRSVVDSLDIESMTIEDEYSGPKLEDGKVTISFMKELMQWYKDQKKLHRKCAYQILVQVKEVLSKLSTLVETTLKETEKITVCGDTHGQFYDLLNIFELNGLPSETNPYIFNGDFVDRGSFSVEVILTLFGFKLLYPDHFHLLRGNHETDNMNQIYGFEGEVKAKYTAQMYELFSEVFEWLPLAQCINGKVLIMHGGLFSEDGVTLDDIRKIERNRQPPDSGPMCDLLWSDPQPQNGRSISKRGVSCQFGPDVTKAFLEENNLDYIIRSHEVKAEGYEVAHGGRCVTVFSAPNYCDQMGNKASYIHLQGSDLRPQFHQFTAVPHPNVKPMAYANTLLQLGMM

Compound	inhibition
Oc1c(C(c2ccccn2)N2CCNCC2)cc(Cl)c2cccnc12 (configuration not stated)	6.84% (inactive)
CN1CCN(C(c2ccccn2)c2cc(Cl)c3cccnc3c2O)CC1 (configuration not stated)	3.05% (inactive)
Oc1c(C(c2ccccn2)N2CCN(c3ccccc3F)CC2)cc(Cl)c2cccnc12 (configuration not stated)	-0.6% (inactive)
Oc1c(C(c2ccccn2)N2CCC(Cc3ccccc3)CC2)cc(Cl)c2cccnc12 (configuration not stated)	4.23% (inactive)
CC1CCN(C(c2ccccn2)c2cc(Cl)c3cccnc3c2O)CC1 (configuration not stated)	6.08% (inactive)
CC(C)(C)OC(=O)N1CCN(C(c2ccccn2)c2cc(Cl)c3cccnc3c2O)CC1 (configuration not stated)	0.25% (inactive)
CCN1CCN(C(c2ccccn2)c2cc(Cl)c3cccnc3c2O)CC1 (configuration not stated)	3.21% (inactive)
